“And” between values parts separate entries of the source, which are not always exact repeats. Equal values may be shown once. Square brackets hold non-standard residues; d marks the D form. Peptide text beside a SMILES is read from it. ξ: configuration not given here. Ac5c = NC1(C(=O)O)CCCC1; ξS = NC(CO)C(=O)O
System: Swiss mice, Sarcoma 180 sc, mean tumor weight T/C
Test: NCI In Vivo Anticancer Drug Screen. Data for tumor model Sarcoma 180 (subcutaneous) in Swiss mice
Conditions: endpoint: mean tumor weight, higher = larger tumour
Summary of the method: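 Mice bearing transplanted tumors were treated with compound, and survival or tumor size was measured. Values are expressed as the treated-group measurement (T) divided by the vehicle-treated control measurement (C).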

[1] = dose: 5.0 mg/kg/injection, schedule: Q01DX007 (ip), vehicle: carboxymethylcellulose (CMC)
[2] = dose: 11.0 mg/kg/injection, schedule: Q01DX007 (ip), vehicle: carboxymethylcellulose (CMC)
[3] = dose: 2.0 mg/kg/injection, schedule: Q01DX007 (ip), vehicle: carboxymethylcellulose (CMC)
[4] = dose: 4.0 mg/kg/injection, schedule: Q01DX007 (ip), vehicle: carboxymethylcellulose (CMC)
[5] = dose: 50.0 mg/kg/injection, schedule: Q01DX007 (ip), vehicle: carboxymethylcellulose (CMC)

Clc1ccc2c(c1)Cc1cc(N=Cc3ccccc3Cl)ccc1-2
T/C (dose: 42.0 mg/kg/injection, schedule: Q01DX007 (ip), vehicle: other): 77 % of control | T/C (dose: 64.0 mg/kg/injection, schedule: Q01DX007 (ip), vehicle: other): 108 % of control | T/C (dose: 66.0 mg/kg/injection, schedule: Q01DX007 (ip), vehicle: saline): 57 % of control | T/C (dose: 99.0 mg/kg/injection, schedule: Q01DX007 (ip), vehicle: saline): 52 % of control | T/C (dose: 148.0 mg/kg/injection, schedule: Q01DX007 (ip), vehicle: saline): 38 % of control | T/C (dose: 222.0 mg/kg/injection, schedule: Q01DX007 (ip), vehicle: other): 42 % of control and 46 % of control | T/C (dose: 222.0 mg/kg/injection, schedule: Q01DX007 (ip), vehicle: saline): 31 % of control | T/C (dose: 333.0 mg/kg/injection, schedule: Q01DX007 (ip), vehicle: other): 20 % of control and 40 % of control | T/C (dose: 492.0 mg/kg/injection, schedule: Q01DX007 (ip), vehicle: carboxymethylcellulose (CMC)): 40 % of control | T/C (dose: 500.0 mg/kg/injection, schedule: Q01DX007 (ip), vehicle: other): 22 % of control | T/C (dose: 750.0 mg/kg/injection, schedule: Q01DX007 (ip), vehicle: carboxymethylcellulose (CMC)): 31 % of control | T/C (dose: 750.0 mg/kg/injection, schedule: Q01DX007 (ip), vehicle: other): 20 % of control

CC(C)=CCC/C(C)=C/CO
T/C (dose: 7.8 mg/kg/injection, schedule: Q01DX007 (ip), vehicle: saline): 83 % of control | T/C (dose: 15.6 mg/kg/injection, schedule: Q01DX007 (ip), vehicle: saline): 83 % of control | T/C (dose: 31.3 mg/kg/injection, schedule: Q01DX007 (ip), vehicle: saline): 110 % of control | T/C (dose: 62.5 mg/kg/injection, schedule: Q01DX007 (ip), vehicle: saline): 90 % of control

CCCCN(C)N=Nc1n[nH]nc1C(N)=O
T/C (dose: 16.0 mg/kg/injection, schedule: Q01DX007 (ip), vehicle: carboxymethylcellulose (CMC)): 93 % of control | T/C (dose: 31.0 mg/kg/injection, schedule: Q01DX007 (ip), vehicle: carboxymethylcellulose (CMC)): 85 % of control | T/C (dose: 62.0 mg/kg/injection, schedule: Q01DX007 (ip), vehicle: carboxymethylcellulose (CMC)): 38 % of control

O=[As]O
T/C (dose: 1.67 mg/kg/injection, schedule: Q01DX007 (ip), vehicle: carboxymethylcellulose (CMC)): 90 % of control | T/C (dose: 3.12 mg/kg/injection, schedule: Q#A X014 (ip), vehicle: carboxymethylcellulose (CMC)): 121 % of control | T/C (dose: 3.33 mg/kg/injection, schedule: Q01DX007 (ip), vehicle: carboxymethylcellulose (CMC)): 78 % of control | T/C (dose: 3.37 mg/kg/injection, schedule: Q01DX007 (ip), vehicle: carboxymethylcellulose (CMC)): 98 % of control | T/C [1]: 66 % of control | T/C (dose: 6.25 mg/kg/injection, schedule: Q#A X014 (ip), vehicle: carboxymethylcellulose (CMC)): 99 % of control | T/C (dose: 6.65 mg/kg/injection, schedule: Q01DX007 (ip), vehicle: carboxymethylcellulose (CMC)): 85 % of control | T/C (dose: 7.0 mg/kg/injection, schedule: Q01DX007 (ip), vehicle: carboxymethylcellulose (CMC)): 90 % of control | T/C (dose: 9.0 mg/kg/injection, schedule: Q01DX007 (ip), vehicle: carboxymethylcellulose (CMC)): 83 % of control | T/C [2]: 64 % of control

CCC(=O)OCC1OC(n2cnc3c(=S)nc(N)[nH]c32)C(OC(=O)CC)C1OC(=O)CC (stereo not drawn)
T/C (dose: 1.0 mg/kg/injection, schedule: Q01DX007 (ip), vehicle: carboxymethylcellulose (CMC)): 61 % of control | T/C [3]: 65 % of control | T/C [1]: 57 % of control and 58 % of control | T/C [2]: 22 % of control

CCC1=C(c2cc(Cl)c3ccccc3c2OCC(=O)O)OC(CC)(C(=O)c2cc(Cl)c3ccccc3c2OCC(=O)O)CC1 (stereo not drawn)
T/C (dose: 2.0 mg/kg/injection, schedule: Q01DX007 (ip), vehicle: other): 110 % of control | T/C (dose: 4.0 mg/kg/injection, schedule: Q01DX007 (ip), vehicle: other): 120 % of control | T/C (dose: 8.0 mg/kg/injection, schedule: Q01DX007 (ip), vehicle: other): 90 % of control | T/C (dose: 16.0 mg/kg/injection, schedule: Q01DX007 (ip), vehicle: other): 112 % of control | T/C (dose: 75.0 mg/kg/injection, schedule: Q01DX007 (ip), vehicle: other): 95 % of control | T/C (dose: 111.0 mg/kg/injection, schedule: Q01DX007 (ip), vehicle: other): 49 % of control

Cc1ccccn1
T/C (dose: 200.0 mg/kg/injection, schedule: Q01DX007 (ip), vehicle: saline): 87 % of control | T/C (dose: 400.0 mg/kg/injection, schedule: Q01DX007 (ip), vehicle: saline): 151 % of control

CCC(=O)NC
T/C (dose: 1000.0 mg/kg/injection, schedule: Q01DX007 (ip), vehicle: other): 41 % of control and 63 % of control | T/C (dose: 1250.0 mg/kg/injection, schedule: Q01DX007 (ip), vehicle: other): 14 % of control and 33 % of control

O=C(O)CCc1c[nH]c2ccc(N(CCCl)CCCl)cc12
T/C [3]: 47 % of control | T/C [4]: 32 % of control

O=C(NCCCCCCCCCCNC(=O)N1CC1)N1CC1
T/C (dose: 0.9 mg/kg/injection, schedule: Q01DX007 (ip), vehicle: carboxymethylcellulose (CMC)): 66 % of control and 83 % of control | T/C (dose: 0.9 mg/kg/injection, schedule: Q01DX007 (ip), vehicle: saline): 70 % of control | T/C (dose: 1.3 mg/kg/injection, schedule: Q01DX007 (ip), vehicle: carboxymethylcellulose (CMC)): 64 % of control and 65 % of control | T/C (dose: 1.3 mg/kg/injection, schedule: Q01DX007 (ip), vehicle: saline): 67 % of control | T/C [3]: 35 % of control and 43 % of control | T/C (dose: 2.0 mg/kg/injection, schedule: Q01DX007 (ip), vehicle: saline): 48 % of control | T/C (dose: 3.0 mg/kg/injection, schedule: Q01DX007 (ip), vehicle: carboxymethylcellulose (CMC)): 10 % of control and 21 % of control | T/C (dose: 3.0 mg/kg/injection, schedule: Q01DX007 (ip), vehicle: saline): 34 % of control | T/C [4]: 38 % of control

CC(O)C(NCNC(=O)C1=C(O)C2(O)C(=O)C3=C(O)c4c(O)cccc4C(C)(O)C3CC2C(N(C)C)C1=O)C(=O)O (stereo not drawn)
T/C (dose: 250.0 mg/kg/injection, schedule: Q#A X014 (ip), vehicle: saline): 44 % of control and 46 % of control

NC(CO)C(=O)NC1(C(=O)O)CCCC1 (stereo not drawn) (H-[ξS]-[Ac5c]-OH)
T/C (dose: 110.0 mg/kg/injection, schedule: Q01DX007 (ip), vehicle: carboxymethylcellulose (CMC)): 84 % of control | T/C (dose: 167.0 mg/kg/injection, schedule: Q01DX007 (ip), vehicle: carboxymethylcellulose (CMC)): 49 % of control | T/C (dose: 250.0 mg/kg/injection, schedule: Q01DX007 (ip), vehicle: carboxymethylcellulose (CMC)): 21 % of control

CN(C)[C@@H]1C(=O)C(C(=O)NCNc2nc(=S)c3[nH]cnc3[nH]2)=C(O)[C@@]2(O)C(=O)C3=C(O)c4c(O)cccc4[C@@](C)(O)[C@H]3C[C@@H]12
T/C (dose: 25.0 mg/kg/injection, schedule: Q01DX007 (ip), vehicle: carboxymethylcellulose (CMC)): 26 % of control | T/C [5]: 15 % of control

CCCCN(C)N=Nc1ccc(C(N)=O)cc1
T/C [5]: 67 % of control | T/C (dose: 75.0 mg/kg/injection, schedule: Q01DX007 (ip), vehicle: carboxymethylcellulose (CMC)): 32 % of control

CCSc1nc(Cl)cc(Sc2nc(N)nc3nc[nH]c23)n1
T/C (dose: 9.0 mg/kg/injection, schedule: Q01DX007 (ip), vehicle: other): 75 % of control | T/C (dose: 18.0 mg/kg/injection, schedule: Q01DX007 (ip), vehicle: methylcellulose (MC)): 91 % of control | T/C (dose: 18.0 mg/kg/injection, schedule: Q01DX007 (ip), vehicle: other): 116 % of control | T/C (dose: 36.0 mg/kg/injection, schedule: Q01DX007 (ip), vehicle: methylcellulose (MC)): 95 % of control | T/C (dose: 72.0 mg/kg/injection, schedule: Q01DX007 (ip), vehicle: methylcellulose (MC)): 76 % of control | T/C (dose: 72.0 mg/kg/injection, schedule: Q01DX007 (ip), vehicle: other): 32 % of control | T/C (dose: 124.0 mg/kg/injection, schedule: Q01DX007 (ip), vehicle: carboxymethylcellulose (CMC)): 73 % of control | T/C (dose: 144.0 mg/kg/injection, schedule: Q01DX007 (ip), vehicle: methylcellulose (MC)): 44 % of control and 57 % of control | T/C (dose: 188.0 mg/kg/injection, schedule: Q01DX007 (ip), vehicle: carboxymethylcellulose (CMC)): 44 % of control | T/C (dose: 277.0 mg/kg/injection, schedule: Q01DX007 (ip), vehicle: carboxymethylcellulose (CMC)): 47 % of control | T/C (dose: 281.0 mg/kg/injection, schedule: Q01DX007 (ip), vehicle: carboxymethylcellulose (CMC)): 76 % of control | T/C (dose: 288.0 mg/kg/injection, schedule: Q01DX007 (ip), vehicle: methylcellulose (MC)): 52 % of control and 61 % of control | T/C (dose: 422.0 mg/kg/injection, schedule: Q01DX007 (ip), vehicle: carboxymethylcellulose (CMC)): 35 % of control and 40 % of control | T/C (dose: 435.0 mg/kg/injection, schedule: Q01DX007 (ip), vehicle: methylcellulose (MC)): 100 % of control | T/C (dose: 630.0 mg/kg/injection, schedule: Q01DX007 (ip), vehicle: carboxymethylcellulose (CMC)): 37 % of control | T/C (dose: 945.0 mg/kg/injection, schedule: Q01DX007 (ip), vehicle: carboxymethylcellulose (CMC)): 47 % of control

Reference: PubChem BioAssay AID342 (DTP/NCI, 2004)
